Laboratory results as given in patent US8546085B2, “Methods of identifying modulators of the bitter taste receptor TAS2R44” (Givaudan SA, priority 2008, dated 2013).
Each block holds one compound with its values, some of them ahead of it. Peptide text beside a SMILES is read from it.

Assays:
Type in all cases: cell-based
TAS2R44 [1] = target: T1, TAS2R44 (Homo sapiens, UniProt P59538, L162M); test: Fluo-4 calcium assay, activation of TAS2R44 by agonists; conditions: for EC50: HEK293T cells stably expressing Gα16-gustducin44 and TAS2R44, nonlinear regression, read-out: calculated EC50 value for TAS2R44; for calcium signaling upon addition: cells stably expressing human TAS2R44
T1 construct: The full length gene of human TAS2R44 was amplified by polymerase chain reaction (PCR) using gene-specific primers that span the entire coding region; RSS tag (first 45 amino acids of rat somatostatin receptor subtype 3, plus EcoRI site) (N); expressed in transfected cells; host or cells: HEK293T/Galpha16-gustducin 44 cells, stably transfected with pcDNA3.1Zeo-TAS2R44
T1 sequence (P59538 with tags, fused parts or gaps L162M): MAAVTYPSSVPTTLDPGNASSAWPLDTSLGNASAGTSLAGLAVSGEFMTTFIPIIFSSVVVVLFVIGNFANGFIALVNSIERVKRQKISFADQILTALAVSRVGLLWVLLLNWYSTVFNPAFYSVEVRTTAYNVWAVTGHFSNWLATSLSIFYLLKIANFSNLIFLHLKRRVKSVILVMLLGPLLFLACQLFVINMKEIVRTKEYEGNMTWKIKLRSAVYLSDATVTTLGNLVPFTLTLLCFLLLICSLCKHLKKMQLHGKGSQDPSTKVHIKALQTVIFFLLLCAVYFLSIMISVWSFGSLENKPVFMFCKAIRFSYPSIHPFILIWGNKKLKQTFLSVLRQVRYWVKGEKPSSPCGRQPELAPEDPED
Experimental: Fluo-4AM (Invitrogen, Carlsbad, Calif., US) is a fluorescent indicator of intracellular calcium dynamics (change in concentration) and allows monitoring changes in the calcium concentration, particularly an increase in response to receptor activation occurring after agonist exposure.
At day 0, the HEK293T cell line expressing Gα16-gustducin44 and a TAS2R bitter taste receptor formed as described in examples 2b or 2c was seeded in antibiotic-free growth medium (standard DMEM with 10% (v/v) heat-inactivated fetal bovine serum, 2 mM L-glutamine[…]) into black wall/clear bottom 96-well plates, coated with poly(ethylenimine) (0.005% v/v) at a concentration of 15,000 cells per well and incubated for 48 hours in humidified atmosphere (37° C., 5% CO2).
At the time of the assay, the growth medium was discarded and the cells were in humidified atmosphere (37° C., 5% CO2) for 1 hour with 50 μl of loading buffer consisting of 1.5 μM Fluo-4 AM and […] probenicid (Sigma-Aldrich, St. Louis, Mo., US) in DMEM.
Afterwards, the 96-well plate was washed 5 times with 100 μl of assay buffer (130 mM NaCl, 5 mM KCl, 10 mM HEPES, 2 mM CaCl2, and 5 mM dextrose, pH 7.4) per well, using an automated plate washer (BioTek). The plate was further incubated for 30 minutes at room temperature in the dark to allow for complete de-esterification of the Fluo-4. Afterwards the plate was washed 5 times with 100 μl of assay buffer per well, and reconstituted with 100 μl of assay buffer per well.
For assay reading, the plate was placed in a Fluorometric Imaging Plate Reader (FLIPR) (FLIPR-TETRA™, Molecular Devices, Sunnyvale, Calif., US), and receptor activation was initiated by addition of 100 μl of a twofold concentrated agonist stock solution (to give the desired agonist end concentration when added to the 100 microliter assay buffer volume), which was prepared in assay buffer.
Fluorescence was continuously monitored for 20 seconds to give a signal baseline (averaged to give F0) prior to agonist addition and for 120 seconds after agonist addition. The change in signal divided by F0 gives ΔF/F0 indicated in the table, with ΔF being the maximum signal occurring within the 120 seconds minus the minimum signal (occurring within the 120 seconds after agonist addition.
All data was collected from at least two independent experiments each carried out in triplicate.
A concentration-response analysis was performed and EC50 values were calculated by nonlinear regression using the function f(x)=(a−d)/(1+(x/C)^nh)+d; with a=minimum signal, d=maximum signal, nh=hill coefficient, C=EC50. , and x=agonist concentration. EC50 is the molar concentration of an agonist which produces 50% of the maximum possible effective response for that agonist.
(§1) The obtained calcium signals were corrected for the response of cells expressing only the G Proteinα subunit (Gα16-gustducin44) and normalized to the fluorescence of cells prior to the stimulus using ΔF/F0 (Fmax−Fmin/F0).
To confirm that the cell line formed in example 2c stably expresses the bitter taste receptor TAS2R44, a concentration-response curve for saccharin, a known agonist of TAS2R44, was generated. […] The standard deviation (+/−STD) is also indicated.
The intracellular calcium response following addition of steviol glycosides (stevioside, rebaudioside A) was determined in HEK293T cell line stably expressing Gα16-gustducin44 and TAS2R44 formed as described in example 2a.

TAS2R44 [2] = target: T1, TAS2R44; test: Fluo-4 calcium assay, antagonists of the response of TAS2R44 to steviol glycosides; conditions: without bitter blocker
Experimental: All cells were HEK293T cells stably expressing Gα16-gustducin44, or expressing Gα16-gustducin44 and TAS2R44.
The method was carried out as described in example 3 subject to the following modifications:
The samples were tested with and without candidate bitter blocker and the signals were compared. The candidate bitter blocker was dissolved in dimethylsulfoxide (DMSO), and a negative control with equivalent DMSO concentration (0.02%) was performed accordingly to exclude a potential inhibitory effect of the solvent. Furthermore, a control with the relevant steviol glycoside and DMSO (0.02%) was performed accordingly (see table in example 5).
All data was calculated as ΔF/F0 and the standard deviation (STD) is indicated in each table, see results for the identified bitter blocker 4-(2,2,3-trimethyl-cyclopentyl)-butanoic acid below.

[3] = system: HEK293T Gα16gustducin44 cells (that do not express TAS2R44); test: Fluo-4 calcium assay, negative control cells without TAS2R44; conditions: for change in signal in the negative control: cells expressing only Gα16-gustducin44
Text: as §1
As a negative control to determine unspecific signals, each of the applied concentrations of each F(I) steviol glycoside was applied to cells expressing only Gα16gustducin44.

agonist for TAS2R44 (TAS2R44 [1]; sweeteners with a known bitter off-note): not to be agonists
SMILES: COC(=O)[C@H](Cc1ccccc1)NC(=O)[C@@H](N)CC(=O)O [aspartame] (H-Asp-Phe-OMe)

rebaudioside positive control average ΔF/F0 (TAS2R44 [2]; 0.7 mM rebaudioside A (EC50) alone): 0.4625
EC50 (TAS2R44 [1]): 0.7 mM
calcium signaling upon addition (TAS2R44 [1]): significant increase
TAS2R44 ΔF/F0 (TAS2R44 [1]; rebaudioside A 0.004 mM): 0.07687
TAS2R44 ΔF/F0 (TAS2R44 [1]; rebaudioside A 0.008 mM): 0.07938
TAS2R44 ΔF/F0 (TAS2R44 [1]; rebaudioside A 0.016 mM): 0.0975
TAS2R44 ΔF/F0 (TAS2R44 [1]; rebaudioside A 0.031 mM): 0.1681
TAS2R44 ΔF/F0 (TAS2R44 [1]; rebaudioside A 0.063 mM): 0.1619
TAS2R44 ΔF/F0 (TAS2R44 [1]; rebaudioside A 0.125 mM): 0.32
TAS2R44 ΔF/F0 (TAS2R44 [1]; rebaudioside A 0.625 mM): 0.7025
TAS2R44 ΔF/F0 (TAS2R44 [1]; rebaudioside A 2.500 mM): 0.7819
TAS2R44 ΔF/F0 (TAS2R44 [1]; rebaudioside A 5.000 mM): 0.6262
SMILES: C=C1C[C@@]23CC[C@H]4[C@@](C)(CCC[C@@]4(C)C(=O)O[C@@H]4O[C@H](CO)[C@@H](O)[C@H](O)[C@H]4O)[C@@H]2CC[C@]1(O[C@@H]1O[C@H](CO)[C@@H](O)[C@H](O[C@@H]2O[C@H](CO)[C@@H](O)[C@H](O)[C@H]2O)[C@H]1O[C@@H]1O[C@H](CO)[C@@H](O)[C@H](O)[C@H]1O)C3 [rebaudioside A]
change in signal in the negative control [3]: No significant change
Neg. Control ΔF/F0 ([3]; rebaudioside A 0.004 mM): 0.061
Neg. Control ΔF/F0 ([3]; rebaudioside A 0.008 mM): 0.0635
Neg. Control ΔF/F0 ([3]; rebaudioside A 0.016 mM): 0.054
Neg. Control ΔF/F0 ([3]; rebaudioside A 0.031 mM): 0.063
Neg. Control ΔF/F0 ([3]; rebaudioside A 0.063 mM): 0.0685
Neg. Control ΔF/F0 ([3]; rebaudioside A 0.125 mM): 0.087
Neg. Control ΔF/F0 ([3]; rebaudioside A 0.625 mM): 0.1115
Neg. Control ΔF/F0 ([3]; rebaudioside A 2.500 mM): 0.153
Neg. Control ΔF/F0 ([3]; rebaudioside A 5.000 mM): 0.208

TAS2R44 ΔF/F0 (TAS2R44 [1]; saccharin 0.0391 mM): 0.024
TAS2R44 ΔF/F0 (TAS2R44 [1]; saccharin 0.0781 mM): 0.075
TAS2R44 ΔF/F0 (TAS2R44 [1]; saccharin 0.1563 mM): 0.181
TAS2R44 ΔF/F0 (TAS2R44 [1]; saccharin 0.3125 mM): 0.388
TAS2R44 ΔF/F0 (TAS2R44 [1]; saccharin 0.6250 mM): 0.668
TAS2R44 ΔF/F0 (TAS2R44 [1]; saccharin 1.2500 mM): 0.947
TAS2R44 ΔF/F0 (TAS2R44 [1]; saccharin 2.5000 mM): 1.150
TAS2R44 ΔF/F0 (TAS2R44 [1]; saccharin 5.0000 mM): 1.258
TAS2R44 ΔF/F0 (TAS2R44 [1]; saccharin 10.0000 mM): 1.354
SMILES: O=C1NS(=O)(=O)c2ccccc21 [saccharin]
change in signal in the negative control [3]: did not show any significant change in signal
Neg. Control ΔF/F0 ([3]; saccharin 10.0000 mM): 0.020

stevioside positive control average ΔF/F0 (TAS2R44 [2]; 2.2 mM stevioside (EC50) alone): 0.733
EC50 (TAS2R44 [1]): 2.2 mM
calcium signaling upon addition (TAS2R44 [1]): significant increase
TAS2R44 ΔF/F0 (TAS2R44 [1]; stevioside 0.004 mM): 0.082
TAS2R44 ΔF/F0 (TAS2R44 [1]; stevioside 0.008 mM): 0.079
TAS2R44 ΔF/F0 (TAS2R44 [1]; stevioside 0.016 mM): 0.096
TAS2R44 ΔF/F0 (TAS2R44 [1]; stevioside 0.031 mM): 0.112
TAS2R44 ΔF/F0 (TAS2R44 [1]; stevioside 0.063 mM): 0.136
TAS2R44 ΔF/F0 (TAS2R44 [1]; stevioside 0.125 mM): 0.230
TAS2R44 ΔF/F0 (TAS2R44 [1]; stevioside 0.625 mM): 0.451
TAS2R44 ΔF/F0 (TAS2R44 [1]; stevioside 2.500 mM): 0.677
TAS2R44 ΔF/F0 (TAS2R44 [1]; stevioside 5.000 mM): 1.155
SMILES: C=C1C[C@@]23CC[C@H]4[C@@](C)(CCC[C@@]4(C)C(=O)O[C@@H]4O[C@H](CO)[C@@H](O)[C@H](O)[C@H]4O)[C@@H]2CC[C@]1(O[C@@H]1O[C@H](CO)[C@@H](O)[C@H](O)[C@H]1O[C@@H]1O[C@H](CO)[C@@H](O)[C@H](O)[C@H]1O)C3 [stevioside]
change in signal in the negative control [3]: No significant change
Neg. Control ΔF/F0 ([3]; stevioside 0.004 mM): 0.061
Neg. Control ΔF/F0 ([3]; stevioside 0.008 mM): 0.059
Neg. Control ΔF/F0 ([3]; stevioside 0.016 mM): 0.059
Neg. Control ΔF/F0 ([3]; stevioside 0.031 mM): 0.074
Neg. Control ΔF/F0 ([3]; stevioside 0.063 mM): 0.065
Neg. Control ΔF/F0 ([3]; stevioside 0.125 mM): 0.063
Neg. Control ΔF/F0 ([3]; stevioside 0.625 mM): 0.062
Neg. Control ΔF/F0 ([3]; stevioside 2.500 mM): 0.010
Neg. Control ΔF/F0 ([3]; stevioside 5.000 mM): 0.435
